Measurements taken from article PMC2867072 (Chemical communications (Cambridge, England), 2010).
Read-outs that look alike come from different tables or passages of the source.

Columns and labels:
MMP-9 (gelatinase-B) = MMP-9 (gelatinase-B) (Homo sapiens, UniProt P14780); assay: fluorescence-based MMP-9 inhibition assay; format: biochemical; details: for inhibition at 1000 µM: read-out: percent inhibition of MMP-9
MMP-8 = MMP-8 (Homo sapiens, UniProt P22894); assay: fluorescence-based MMP-8 inhibition assay; format: biochemical; details: MMP-8, fluorescence based assay
MMP-8, sequence (P22894 101-467, species assumed): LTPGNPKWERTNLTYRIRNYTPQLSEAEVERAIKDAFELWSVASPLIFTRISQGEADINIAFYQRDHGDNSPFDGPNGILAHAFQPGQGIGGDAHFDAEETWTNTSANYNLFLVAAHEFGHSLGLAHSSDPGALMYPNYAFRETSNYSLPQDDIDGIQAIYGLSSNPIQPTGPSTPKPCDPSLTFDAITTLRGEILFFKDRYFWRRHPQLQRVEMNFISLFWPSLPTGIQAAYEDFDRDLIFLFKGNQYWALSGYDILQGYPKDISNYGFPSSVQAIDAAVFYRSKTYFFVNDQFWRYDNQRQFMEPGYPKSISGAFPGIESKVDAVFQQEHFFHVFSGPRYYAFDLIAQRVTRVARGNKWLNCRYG

MMP-9 (gelatinase-B), sequence (P14780 94-707, species assumed): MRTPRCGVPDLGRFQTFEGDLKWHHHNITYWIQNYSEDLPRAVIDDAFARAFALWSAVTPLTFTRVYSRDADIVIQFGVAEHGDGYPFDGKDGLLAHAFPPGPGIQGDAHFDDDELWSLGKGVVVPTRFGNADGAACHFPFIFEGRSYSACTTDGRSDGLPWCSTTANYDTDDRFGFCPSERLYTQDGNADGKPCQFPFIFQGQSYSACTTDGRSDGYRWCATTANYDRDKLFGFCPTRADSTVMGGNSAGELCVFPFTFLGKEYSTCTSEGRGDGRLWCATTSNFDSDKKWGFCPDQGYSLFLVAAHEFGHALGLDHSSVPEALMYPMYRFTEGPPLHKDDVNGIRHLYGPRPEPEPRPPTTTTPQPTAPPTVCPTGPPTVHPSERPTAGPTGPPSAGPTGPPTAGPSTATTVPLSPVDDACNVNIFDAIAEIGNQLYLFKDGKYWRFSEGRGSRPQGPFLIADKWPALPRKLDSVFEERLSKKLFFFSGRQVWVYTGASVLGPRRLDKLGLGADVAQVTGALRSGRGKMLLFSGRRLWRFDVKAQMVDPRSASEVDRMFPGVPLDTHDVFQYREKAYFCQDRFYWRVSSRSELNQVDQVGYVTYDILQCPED

IC50 (MMP-9 (gelatinase-B)) [µM] | inhibition at 1000 µM (MMP-9 (gelatinase-B)) [%] | IC50 (MMP-8) [µM] | IC50 (MMP-9 (gelatinase-B); MMP-9, fluorescence based assay) [µM] | SMILES
138 | ~50 | – | – | Cc1occc(=S)c1O [Compound 5, 3-hydroxy-2-methyl-4-pyrothione]
4030 | ~50 | – | – | Cc1occc(=O)c1O [Compound 3, 3-hydroxy-2-methyl-4-pyrone]
– | – | 0.075 | 2.7 | O=C(NCc1ccc(-c2ccccc2)cc1)c1cccc(=O)n1O [Compound 7, 1,2-HOPO-2]
